{
  "source": "paper PMC11091243",
  "about": "“PD-L1 targeted peptide demonstrates potent antitumor and immunomodulatory activity in cancer immunotherapy” (Frontiers in Immunology, 2024)",
  "system": "serum cytokines of CT26-bearing mice",
  "experiment": "Cytokine ELISA of serum of treated CT26-bearing mice",
  "type": "in vivo, mouse",
  "details": "14 days of administration, versus untreated and control peptide groups",
  "protocol": "After 14 days of continuous administration, 0.5-1.0 ml of peripheral blood was collected from the mice. Serum was isolated from peripheral blood using the posterior orbital venous plexus blood collection method. The serum was obtained by centrifuging at 2000 RMP for 10 minutes. Mouse total lymphocytes were isolated from the spleen using Ficoll density gradient fractionation (Shanghai Biotech Bioengineering). In 200 μL of RIPM medium with 10% FBS, 1×10^6 tumor cells were seeded in each well with a CT26: lymphocyte ratio of 1:2 and incubated for 48 and 72 hours. Cell growth medium was harvested by centrifuging at 2000 RPM for 10 min. For the analysis of cytokine production, lymphocyte growth media served as a positive control and cell-free growth medium served as a negative control. Following the manufacturer’s instructions, the levels of IL-2, IL-4, IL-6, IL-10, TNF-α and IFN-γ in the blood and cell growth media were assessed using LEGEND MAX™ ELISA kit (BioLegend Inc, USA). Three duplicates of each experiment were carried out.",
  "data": [
    {"smiles": "CC(C)[C@H](NC(=O)[C@H](CO)NC(=O)[C@@H](NC(=O)[C@@H](N)CO)C(C)C)C(=O)N[C@@H](CO)C(=O)N[C@@H](Cc1c[nH]cn1)C(=O)N[C@@H](Cc1ccccc1)C(=O)N[C@@H](CCC(N)=O)C(=O)N[C@@H](CCCCN)C(=O)N[C@H](C(=O)N[C@@H](Cc1c[nH]c2ccccc12)C(=O)N[C@H](C(=O)N[C@H](C(=O)NCC(=O)NCC(=O)NCC(=O)N[C@@H](CO)C(=O)N[C@@H](CCCCN)C(N)=O)C(C)C)C(C)C)C(C)C", "note": "[PPL-C]", "values": [
      {"measurement": "IFN-γ, IL-2, IL-4 and IL-6 secretion in serum", "value": "significantly promoted"},
      {"measurement": "IL-10 secretion in serum", "value": "lower IL-10 secretion"}
    ]}
  ]
}
